In experiment [1] the test system is Cladosporium cladosporioides. Briefly: Six-well plate screening test. It is filed as cell-based. The conditions noted are these: for Minimum Inhibitory Concentrations (MIC): 10 days of incubation at room temperature.
In a further experiment the test system is Aspergillus niger. Briefly: Six-well plate screening test. It is filed as cell-based. The settings on record: for Minimum Inhibitory Concentrations (MIC): 10 days of incubation at room temperature.
The subject of the next experiment is Aureobasidium pullulans. The experiment is described as follows: Six-well plate screening test. It is filed as cell-based. The settings on record: for Minimum Inhibitory Concentrations (MIC): 10 days of incubation at room temperature.
A further experiment has as its system Penicillium funiculosum. The experiment is described as follows: Six-well plate screening test. It is filed as cell-based. The settings on record: for Minimum Inhibitory Concentrations (MIC): 10 days of incubation at room temperature.
The test system of a further experiment is Stachybotrus charatrum. The experiment is described as follows: Six-well plate screening test. The experiment is classed as cell-based.
The test system of a further experiment is Mold from ACQ wood. Briefly: Six-well plate screening test. It is filed as cell-based, cephalosporium. The conditions noted are these: 10 days of incubation at room temperature.
Another experiment deals with Alternaria alternata. The experiment is described as follows: Six-well plate screening test. It is filed as cell-based. The settings on record: for Minimum Inhibitory Concentrations (MIC): 10 days of incubation at room temperature.
Another experiment deals with Trichoderma virens. Briefly: Six-well plate screening test. The settings on record: for Minimum Inhibitory Concentrations (MIC): 10 days of incubation at room temperature. The experiment is classed as cell-based.
Experiment [2] has as its system Alternaria alternata, Aspergillus niger, Aureobasidium pullulans, Cladosporium cladosporioides, Cephalosporium sp. (DR 423). The experiment is described as follows: Wood panel test method. Further details: species or system mixed spore suspension of mold. The settings on record: compositions with the single moldicide at 40 mg/kg. Here is the method: The wood panel specimens were approximately 5×3 inches (12.7×7.6 cm)×board thickness. There were seven replicates per treatment. The wood panels were conditioned at approximately 80° F. (27° C.) and 80% relative humidity for one week prior to mold inoculation. The wood panels were supported on a screen above a layer of water in a sealed plastic box for 8 weeks at approximately 80° F. (27° C.) and 100% relative humidity.
Mold and stain fungi used for inoculum were Alternaria alternata, Aspergillus niger, Aureobasidium pullulans, Cladosporium cladosporioides, and an additional mold isolated from ACQ-treated wood from Georgia Pacific (October 2002, tentatively identified as Cephalosporium sp. (DR 423).
Each inoculum was produced from fully colonized, 2% malt agar in 100 mm petri plates, by washing spores with 10 mL distilled water plus 10 mL rinse (20 mL inoculum were produced per plate). The panels were inoculated by spraying with mixed spore suspension of mold on the surface to be evaluated; approx. 2-3 mL of inoculum were applied per panel. The panel surfaces were lightly misted with distilled water once per week during the evaluation test to maintain optimum conditions for mold colonization in the chambers. Two evaluation ratings were made weekly for 8 weeks; using a scale of 0 (no coverage by mold) to 10 (total coverage by mold). […]

Setting [3] is: single moldicide or ACQ-C alone, incubation period 14 days.
[4] abbreviates: single moldicide, incubation period 21 days.

The structures appear in SMILES notation.

In the case of `Cc1cc(C2CC2)nc(Nc2ccccc2)n1` [Cyprodinil, 4-cyclopropyl-6-methyl-N-phenylpyrimidin-2-amine], the “Minimum Inhibitory Concentrations (MIC)” value in experiment [1] is given as 100 mg/kg; in the experiment with Aspergillus niger, 10 mg/kg; in the experiment with Aureobasidium pullulans, 100 mg/kg; in the experiment with Penicillium funiculosum it was 100 mg/kg; in the experiment on Mold from ACQ wood, above 100 mg/kg; in the experiment on Alternaria alternata, 10 mg/kg. In addition, the “Minimum Inhibitory Concentrations (MIC)” value with Trichoderma virens is above 100 mg/kg. Also, the MIC in experiment [1] (setting [3]) was 100 mg/kg; in experiment [1] (setting [4]), above 100 mg/kg; against Aspergillus niger (setting [3]), 100 mg/kg; against Aspergillus niger (setting [4]), above 100 mg/kg; with Aureobasidium pullulans (setting [3]), 100 mg/kg; against Aureobasidium pullulans (setting [4]) it was above 100 mg/kg. For the same compound, the MIC is listed as 100 mg/kg with Penicillium funiculosum (setting [3]); 100 mg/kg with Penicillium funiculosum (setting [4]); 100 mg/kg with Stachybotrus charatrum (setting [3]); 100 mg/kg against Stachybotrus charatrum (setting [4]); 12.5 mg/kg in the experiment with Alternaria alternata (setting [3]); 50 mg/kg against Alternaria alternata (setting [4]). Further, the MIC is 100 mg/kg against Trichoderma virens (setting [3]) and above 100 mg/kg against Trichoderma virens (setting [4]).
Regarding `CC(C)(C)C(O)(CCc1ccc(Cl)cc1)Cn1cncn1` (racemic) [Tebuconazole, (RS)-1-p-chlorophenyl4,4-dimethyl-3-(1H-1,2,4-triazol-1-ylmethyl)pentan-3-ol], the “Minimum Inhibitory Concentrations (MIC)” value in experiment [1] is 10 mg/kg; with Aspergillus niger, 10 mg/kg; in the experiment on Aureobasidium pullulans, 10 mg/kg; in the experiment with Penicillium funiculosum, above 10 mg/kg; in the experiment with Mold from ACQ wood, above 100 mg/kg; in the experiment on Alternaria alternata, 100 mg/kg. Also, the “Minimum Inhibitory Concentrations (MIC)” value in the experiment on Trichoderma virens was above 10 mg/kg. Also, the MIC in experiment [1] (setting [3]) is listed as 10 mg/kg; in the experiment with Aspergillus niger (setting [3]), 10 mg/kg; against Aureobasidium pullulans (setting [3]), 10 mg/kg; against Penicillium funiculosum (setting [3]) it was above 10 mg/kg; against Alternaria alternata (setting [3]) it was 100 mg/kg; with Trichoderma virens (setting [3]), above 10 mg/kg. In addition, the “potential to control mold growth” value in [2] was “good potential to control mold growth”.
Regarding `CCCC1COC(Cn2cncn2)(c2ccc(Cl)cc2Cl)O1` (stereo not drawn) [Propiconazole, cis-trans-1-[2-(2,4-dichlorophenyl)-4-propyl-1,3-dioxolan-2-ylmethyl]-1H-1,2,4-triazole], the “Minimum Inhibitory Concentrations (MIC)” value in [1] is reported as 1 mg/kg; with Aspergillus niger it was 10 mg/kg; in the experiment on Aureobasidium pullulans, 1 mg/kg; in the experiment with Penicillium funiculosum, 100 mg/kg; in the experiment on Mold from ACQ wood, 10 mg/kg; with Alternaria alternata, above 100 mg/kg. Moreover, in the experiment with Trichoderma virens, the “Minimum Inhibitory Concentrations (MIC)” value worked out at 10 mg/kg. Further, the MIC in experiment [1] (setting [3]) is recorded as 3.1 mg/kg; in [1] (setting [4]) it was 3.1 mg/kg; in the experiment with Aspergillus niger (setting [3]) it was 25 mg/kg; with Aspergillus niger (setting [4]), 25 mg/kg; against Aureobasidium pullulans (setting [3]), 0.8 mg/kg; with Aureobasidium pullulans (setting [4]) it was 0.8 mg/kg. Besides, the MIC with Penicillium funiculosum (setting [3]) is listed as above 100 mg/kg; against Penicillium funiculosum (setting [4]), above 100 mg/kg; in the experiment on Stachybotrus charatrum (setting [3]) it was 25 mg/kg; against Stachybotrus charatrum (setting [4]) it was 25 mg/kg; against Alternaria alternata (setting [3]), 100 mg/kg; against Alternaria alternata (setting [4]), 100 mg/kg. The MIC worked out at 6.2 mg/kg against Trichoderma virens (setting [3]) and 12.5 mg/kg in the experiment on Trichoderma virens (setting [4]). Moreover, in [2], the “potential to control mold growth” value is “good potential to control mold growth”.
